Measured values: publication PMC9891357 (Molecular Cancer Therapeutics, 2022)

What was measured:
USP46 = USP46 (Homo sapiens, UniProt P62068); test: Ubiquigent DUBprofiler biochemical panel, […] inhibition at […]
USP12 = USP12 (Homo sapiens, UniProt O75317); test: as above
Chain of USP12 (O75317 whole entry): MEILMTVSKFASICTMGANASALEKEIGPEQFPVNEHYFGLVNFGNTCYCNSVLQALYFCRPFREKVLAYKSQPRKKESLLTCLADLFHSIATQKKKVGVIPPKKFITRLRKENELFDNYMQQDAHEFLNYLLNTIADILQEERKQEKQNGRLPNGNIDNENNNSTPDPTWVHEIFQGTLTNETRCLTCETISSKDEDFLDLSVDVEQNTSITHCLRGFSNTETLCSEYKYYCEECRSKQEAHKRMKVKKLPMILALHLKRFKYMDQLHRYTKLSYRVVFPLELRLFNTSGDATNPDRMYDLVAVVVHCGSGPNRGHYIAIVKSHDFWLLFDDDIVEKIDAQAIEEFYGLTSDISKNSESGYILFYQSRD
Chain of USP12 (Q8TAF3 whole entry partner): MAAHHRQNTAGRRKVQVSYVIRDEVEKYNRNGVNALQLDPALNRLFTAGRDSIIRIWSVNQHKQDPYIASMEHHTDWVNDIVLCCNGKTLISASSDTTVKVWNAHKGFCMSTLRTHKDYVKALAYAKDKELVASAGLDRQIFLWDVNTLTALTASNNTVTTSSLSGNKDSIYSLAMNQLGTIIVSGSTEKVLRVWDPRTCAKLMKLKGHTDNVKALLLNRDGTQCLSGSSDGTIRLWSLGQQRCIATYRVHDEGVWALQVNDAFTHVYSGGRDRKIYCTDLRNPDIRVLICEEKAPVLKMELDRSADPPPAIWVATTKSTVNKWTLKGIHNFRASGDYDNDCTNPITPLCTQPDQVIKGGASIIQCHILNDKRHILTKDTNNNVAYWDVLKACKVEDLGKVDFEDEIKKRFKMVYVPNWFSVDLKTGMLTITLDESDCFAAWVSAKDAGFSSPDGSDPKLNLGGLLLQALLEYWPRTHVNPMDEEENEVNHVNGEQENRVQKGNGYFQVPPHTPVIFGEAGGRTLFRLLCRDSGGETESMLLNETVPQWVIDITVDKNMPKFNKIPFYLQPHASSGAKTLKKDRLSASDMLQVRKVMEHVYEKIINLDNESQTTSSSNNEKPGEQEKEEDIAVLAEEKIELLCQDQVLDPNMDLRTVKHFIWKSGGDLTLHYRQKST

Chain of USP46 (P62068 whole entry): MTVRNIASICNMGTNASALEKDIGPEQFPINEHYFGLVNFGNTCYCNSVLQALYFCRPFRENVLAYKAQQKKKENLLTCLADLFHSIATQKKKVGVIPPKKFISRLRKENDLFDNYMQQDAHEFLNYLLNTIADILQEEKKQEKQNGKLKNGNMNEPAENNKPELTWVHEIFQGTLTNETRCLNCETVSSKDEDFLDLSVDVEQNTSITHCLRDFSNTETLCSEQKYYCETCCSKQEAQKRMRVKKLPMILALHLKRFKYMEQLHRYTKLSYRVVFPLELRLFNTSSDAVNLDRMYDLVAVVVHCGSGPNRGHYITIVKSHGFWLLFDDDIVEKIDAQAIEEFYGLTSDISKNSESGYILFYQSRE
Chain of USP46 (Q8TAF3 whole entry partner): as the sequence (Q8TAF3 whole entry partner) above

For `CC(C)c1ccccc1-c1ncc2[nH]c(=O)n(Cc3ccc(-c4nc(C(F)(F)F)cn4C)cc3)c2n1` [I-138, 2-(2-isopropylphenyl)-9-(4-(1-methyl-4-(trifluoromethyl)-1H-imidazol-2-yl)benzyl)-7,9-dihydro-8H-purin-8-one], the IC50 (USP46) was ~ 10 μmol/L and the IC50 (USP12) was ~ 10 μmol/L.
